These results are taken from PMC8694143 (Microbiology Spectrum, 2021).

No end group written: not given here. Some results are limits rather than exact numbers.

In series [1] the test system is MRSA ATCC 33592 on 3D EpiDerm skin tissues. Put plainly: Three-dimensional NHEK skin model of MRSA infection. In kind it is cell-based, Staphylococcus aureus. As to conditions: 25 μg/mL (4× MIC), 100 μL apical, 16 h after 4 h colonization, 37°C, 5% CO2. Here is the method: 3D EpiDerm skin tissues (MatTek EPI-200-AFAB; antifungal and antibiotic-free; 9 mm) contained within a plastic insert lined with a permeable 0.4 μm membrane were transferred to 12-well plates containing antibiotic assay medium (600 μL/well). A fresh MRSA ATCC 33592 culture in the log phase of growth was centrifuged at 10,000 rpm for 5 min to harvest bacterial cells before resuspension in sterile PBS to an […] 5 × 10^6 CFU/mL. Tissues were incubated with 100 μL of the bacterial cell suspension (5 × 10^5 CFU) for 4 h at 37°C in a humidified 5% CO2 environment. After 4 h, the bacterial cell suspension was removed and the apical surface of each tissue was washed 3 times with PBS to remove nonadherent bacterial cells. Next, the colonized skin tissues were treated with a 100 μL volume of STIP3-29 at 25 μg/mL. An equal volume of sterile PBS was used for untreated control experiments. Tissues were then incubated at 37°C in a humidified 5% CO2 environment for 16 h. […] The number of MRSA colonies on each plate was counted and an average CFU/mL was determined for treated and untreated samples. […] The statistical differences in colonization were evaluated using an unpaired two-tailed Student’s t test to compare pretreated (control colonization; CC), untreated control (PBS), and STIP3-29 treated groups.

Series [2] has as its system S. pseudintermedius human isolate SPC020 (MSSR). Put plainly: MIC determination in broth. The series is classed as cell-based, Staphylococcus pseudintermedius. To be noted: MH broth. The method, then:
(§1) The MICs were measured for bioactive peptides identified from the initial screen. Cation-adjusted Mueller-Hinton (MH) broth was used as the growth medium for MIC determination experiments. Bacterial cultures were diluted to an OD of 5 × 10^−4 (∼10^5 CFU/mL) in 200 μL MH broth mixed with peptides in a 2-fold dilution series arrayed in 96-well plates. Plates were incubated without shaking at 30 or 37°C depending on the organism.

Series [3] concerns S. pseudintermedius human isolate SPC001 (MSSP). Nature of the series: MIC determination in broth. To be noted: MH broth. The series is classed as cell-based, Staphylococcus pseudintermedius. Here is the method: as §1
For series [4], the system named is S. pseudintermedius canine isolate MRSP16. Nature of the series: MIC determination in broth. The series is classed as cell-based, Staphylococcus pseudintermedius. As to conditions: MH broth. Here is the method: as §1
Series [5] has as its system S. pseudintermedius human isolate SPC002 (MSSP). Nature of the series: MIC determination in broth. In kind it is cell-based, Staphylococcus pseudintermedius. As to conditions: MH broth. The method, then: as §1
The subject of series [6] is S. pseudintermedius canine isolate MRSP24. Put plainly: MIC determination in broth. In kind it is cell-based, Staphylococcus pseudintermedius. As to conditions: MH broth. Here is the method: as §1
Series [7] has as its system S. pseudintermedius canine isolate MSSP42. Nature of the series: MIC determination in broth. The series is classed as cell-based, Staphylococcus pseudintermedius. To be noted: MH broth. Here is the method: as §1
The next series deals with panel of 7 MRSA strains. Nature of the series: Bactericidal activity time course, MRSA panel. The series is classed as cell-based, Staphylococcus aureus. The method, then:
(§2) Time-dependent inhibition of pathogens was measured using standing bacterial cultures treated with 2× MIC. Overnight cultures were diluted to 10^4 or 10^7 CFU/mL in 2 mL of MH broth supplemented with the appropriate peptide concentration or sterile water as a control. Standing cultures were then incubated at 37°C and 100 μL aliquots were removed at specified time intervals. For the panel of 7 MRSA strains, treatment intervals of 30 min, 4 h, 8 h, and 24 h were used. For MRSA ATCC 33592, ATCC 1683, and S. pseudintermedius SPC002, shorter intervals included 5, 30, 60, 120, 240, and 360 min. The 100-μL aliquots were plated using serial dilutions as necessary on LB agar, and CFU were counted as a measure of bacterial viability after 24 h. To normalize cell viability data, surviving cells in CFU/mL were compared to the initial bacterial inoculum of each strain and then expressed as a percentage of that concentration. All experiments were performed in triplicate with values reported as the mean with standard deviations. Statistical differences in the observed viability of bacteria treated with STIP3-29 were analyzed using a paired two-tailed Student’s t test comparing the pretreatment (0 h) viability to those observed at posttreatment time points using Stata v17.0 software.

Another series deals with 3D EpiDerm skin tissues. Put plainly: Tissue cytotoxicity, alamarBlue. In kind it is cell-based, human. As to conditions: 250 μg/mL (40-fold the MIC), 24 h, data not shown. The method, then: Cytotoxicity was measured using the 3D EpiDerm skin tissues and HeLa (ATCC CCL-2) cells using a fluorescent reporter of cell viability, alamarBlue (ThermoFisher Scientific). 3D EpiDerm skin tissues (MatTek EPI-200-AFAB) were transferred to a 12-well plate containing 600 μL of AFAB-assay medium supplemented with 10% vol/vol alamarBlue. […] HeLa cells were seeded in a 96-well plate at 2 × 10^4 cells/per well and incubated overnight at 37°C in a humidified 5% CO2 environment to prepare wells at ∼50% confluence for treatments after spent Dulbecco’s modified Eagle’s medium (DMEM) was removed and cells were washed with PBS. Assays were then performed using phenol red-free DMEM supplement with 9% vol/vol alamarBlue and peptide concentrations varying from 3.13 to 200 μg/mL. After a 24 h incubation period, alamarBlue fluorescence emission was measured at 590 nm upon excitation at 560 nm using Varioskan Lux plate reader (Thermo Scientific). Fluorescence intensities of treated cultures were normalized to measurement made for untreated control samples. Experimental data sets were fit to nonlinear dose-response curves to determine IC50 values using Origin 2019.

A further series concerns S. epidermidis. Put plainly: MIC determination in broth. The series is classed as cell-based, Staphylococcus epidermidis. To be noted: isolate from the healthy quarter of a dairy cow; MH broth. The method, then:
as §1

In series [8] the test system is MRSA ATCC 33592, ATCC 1683 and S. pseudintermedius SPC002. Put plainly: Bactericidal activity time course, short intervals. The series is classed as cell-based, Staphylococcus aureus; Staphylococcus pseudintermedius. To be noted: 2× MIC, MH broth, 37°C. The method, then: as §2
For another series, the system named is S. equorum. Nature of the series: MIC determination in broth. In kind it is cell-based, Staphylococcus equorum. As to conditions: isolate from the healthy quarter of a dairy cow; MH broth. Here is the method: as §1

For TVGGLVKWILKTVKKFA-NH2 [STIP3-29], the “Effect on the MRSA population on colonized NHEK tissue” value in [1] is listed as “prevented the expansion of the MRSA population”. The “MIC, S. pseudintermedius SPC020 (MSSR)” value in series [2] worked out at 3.13 µg/mL. The “MIC, S. pseudintermedius SPC001 (MSSP)” value in series [3] came to 3.13 µg/mL. In addition, the “MIC, S. pseudintermedius MRSP16” value in [4] amounted to 3.13 µg/mL. In addition, in [5], the “MIC, S. pseudintermedius SPC002 (MSSP)” value turned out to be 3.13 µg/mL. For the same substance, the “MIC, S. pseudintermedius MRSP24” value in series [6] was determined as 3.13 µg/mL. Moreover, the “MIC, S. pseudintermedius MSSP42” value in series [7] is 3.13 µg/mL. In the series on panel of 7 MRSA strains (12.5 μg/mL (2× MIC), MH broth, 37°C, 4 h, all 7 MRSA strains, triplicate), the “Recovery of viable MRSA cells” value was “less than 1%”. For the same substance, the “Mode of antibacterial action from viability time courses” value in the series on panel of 7 MRSA strains (MRSA viability during two time course experiments) was “bactericidal”. For the same substance, the “Tissue-level cytotoxicity, redox-sensitive dye” value with 3D EpiDerm skin tissues is “unable to differentiate STIP3-29-treated and untreated samples”. Besides, the “MIC, S. epidermidis” value in the series with S. epidermidis was found to be 3.13 µg/mL. Besides, in series [8] (5 min, all three strains, normalized to the starting cell count), the “Viability within 5 min of treatment” value was no more than 40%. Moreover, in series [8] (2 h, detection limit 10 CFU/mL), the “Recovery of viable bacteria after 2 h of treatment” value is given as “inability to recover viable bacteria”. The “MIC, S. equorum” value against S. equorum came to 3.13 µg/mL.
